Laboratory results reported in ChEMBL document CHEMBL1909046, “DrugMatrix in vitro pharmacology data”.

Key:
[1] = biological target: T1, Receptor-type tyrosine-protein phosphatase C (Homo sapiens, UniProt P08575); set-up: species or system Escherichia coli;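 further: inhibition of CD45 enzyme activity measured using DiFMUP as substrate; in other assays of this panel Not Active means under 50% inhibition at 10 µM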
T1 sequence (P08575 whole entry): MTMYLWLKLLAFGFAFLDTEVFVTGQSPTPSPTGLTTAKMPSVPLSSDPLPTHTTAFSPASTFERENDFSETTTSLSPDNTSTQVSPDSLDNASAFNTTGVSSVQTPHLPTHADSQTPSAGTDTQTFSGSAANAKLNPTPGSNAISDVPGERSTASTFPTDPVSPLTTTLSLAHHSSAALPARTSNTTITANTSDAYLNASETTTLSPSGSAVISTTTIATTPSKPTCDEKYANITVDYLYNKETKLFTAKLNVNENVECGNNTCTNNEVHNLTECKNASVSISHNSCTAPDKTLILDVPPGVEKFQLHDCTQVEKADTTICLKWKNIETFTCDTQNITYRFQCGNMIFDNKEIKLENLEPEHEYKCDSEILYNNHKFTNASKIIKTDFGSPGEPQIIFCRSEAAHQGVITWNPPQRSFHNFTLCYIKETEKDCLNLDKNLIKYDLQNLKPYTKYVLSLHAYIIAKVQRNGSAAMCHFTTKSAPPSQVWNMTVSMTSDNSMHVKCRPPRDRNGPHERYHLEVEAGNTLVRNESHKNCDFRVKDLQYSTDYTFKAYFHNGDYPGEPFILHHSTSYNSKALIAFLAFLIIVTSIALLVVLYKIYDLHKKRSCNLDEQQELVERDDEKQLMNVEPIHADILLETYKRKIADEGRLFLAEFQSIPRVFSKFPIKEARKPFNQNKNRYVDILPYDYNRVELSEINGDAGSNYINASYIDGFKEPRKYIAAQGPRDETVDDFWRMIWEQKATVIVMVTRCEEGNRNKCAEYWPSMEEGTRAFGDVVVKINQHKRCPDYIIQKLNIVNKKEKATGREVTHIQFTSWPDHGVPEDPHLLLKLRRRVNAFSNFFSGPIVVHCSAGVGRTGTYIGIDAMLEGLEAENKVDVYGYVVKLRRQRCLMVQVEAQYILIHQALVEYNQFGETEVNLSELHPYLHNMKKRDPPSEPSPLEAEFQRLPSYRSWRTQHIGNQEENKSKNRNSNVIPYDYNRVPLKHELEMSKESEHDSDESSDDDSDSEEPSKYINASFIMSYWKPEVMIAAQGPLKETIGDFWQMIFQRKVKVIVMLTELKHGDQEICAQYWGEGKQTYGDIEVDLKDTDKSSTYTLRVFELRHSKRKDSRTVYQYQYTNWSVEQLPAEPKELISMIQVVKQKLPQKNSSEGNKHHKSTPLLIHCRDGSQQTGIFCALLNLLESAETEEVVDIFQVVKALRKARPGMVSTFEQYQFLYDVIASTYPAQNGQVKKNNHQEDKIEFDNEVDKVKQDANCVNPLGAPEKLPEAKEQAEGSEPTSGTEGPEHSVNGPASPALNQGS

[2] = DRUGMATRIX: Atrial Natriuretic Factor (ANF) radioligand binding (ligand: [125I] ANF (rat)); format: cell membranes, Cavia porcellus, Dunkin-Hartley, Adrenal gland, Membrane; conditions: Not Active = under 50% inhibition at 10 µM
[3] = biological target: 5-hydroxytryptamine receptor 2B (Homo sapiens, UniProt P41595); format: cell membranes, CHO-K1, Membrane; further: in other assays of this panel Not Active means under 50% inhibition at 10 µM
Sequence of 5-hydroxytryptamine receptor 2B (P41595 whole entry): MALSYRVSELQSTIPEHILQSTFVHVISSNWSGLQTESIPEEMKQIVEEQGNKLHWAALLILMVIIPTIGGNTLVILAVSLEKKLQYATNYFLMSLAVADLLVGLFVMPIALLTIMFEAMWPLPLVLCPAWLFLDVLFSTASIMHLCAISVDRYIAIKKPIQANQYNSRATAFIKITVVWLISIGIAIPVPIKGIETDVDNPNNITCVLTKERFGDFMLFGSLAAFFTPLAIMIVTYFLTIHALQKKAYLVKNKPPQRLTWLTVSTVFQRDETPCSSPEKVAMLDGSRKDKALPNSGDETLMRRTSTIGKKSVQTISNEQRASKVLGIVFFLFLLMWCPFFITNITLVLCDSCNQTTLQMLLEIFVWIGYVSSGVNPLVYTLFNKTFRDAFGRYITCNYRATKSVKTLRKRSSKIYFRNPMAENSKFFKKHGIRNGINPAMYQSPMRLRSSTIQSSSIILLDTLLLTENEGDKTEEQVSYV

Cannabinoid receptor 1 = Cannabinoid receptor 1 (Homo sapiens, UniProt P21554); format: cell membranes, Membrane; conditions: chem-1; further: in other assays of this panel Not Active means under 50% inhibition at 10 µM
Sequence of Cannabinoid receptor 1 (P21554 whole entry): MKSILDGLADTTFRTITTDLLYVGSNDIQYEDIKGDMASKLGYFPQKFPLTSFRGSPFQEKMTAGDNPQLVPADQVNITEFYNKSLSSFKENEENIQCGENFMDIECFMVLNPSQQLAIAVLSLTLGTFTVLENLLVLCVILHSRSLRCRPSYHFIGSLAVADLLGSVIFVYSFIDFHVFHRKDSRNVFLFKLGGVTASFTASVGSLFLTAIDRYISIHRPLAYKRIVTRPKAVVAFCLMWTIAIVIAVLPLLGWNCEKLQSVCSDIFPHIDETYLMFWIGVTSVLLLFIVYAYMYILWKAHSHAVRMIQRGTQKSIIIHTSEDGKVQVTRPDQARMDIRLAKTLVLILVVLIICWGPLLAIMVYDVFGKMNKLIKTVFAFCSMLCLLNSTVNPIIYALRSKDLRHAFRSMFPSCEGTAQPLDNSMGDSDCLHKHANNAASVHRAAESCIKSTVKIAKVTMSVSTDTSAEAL

Vasopressin V1a receptor = Vasopressin V1a receptor (Homo sapiens, UniProt P37288); format: cell membranes, Membrane; conditions: hek293; further: in other assays of this panel Not Active means under 50% inhibition at 10 µM
Sequence of Vasopressin V1a receptor (P37288 whole entry): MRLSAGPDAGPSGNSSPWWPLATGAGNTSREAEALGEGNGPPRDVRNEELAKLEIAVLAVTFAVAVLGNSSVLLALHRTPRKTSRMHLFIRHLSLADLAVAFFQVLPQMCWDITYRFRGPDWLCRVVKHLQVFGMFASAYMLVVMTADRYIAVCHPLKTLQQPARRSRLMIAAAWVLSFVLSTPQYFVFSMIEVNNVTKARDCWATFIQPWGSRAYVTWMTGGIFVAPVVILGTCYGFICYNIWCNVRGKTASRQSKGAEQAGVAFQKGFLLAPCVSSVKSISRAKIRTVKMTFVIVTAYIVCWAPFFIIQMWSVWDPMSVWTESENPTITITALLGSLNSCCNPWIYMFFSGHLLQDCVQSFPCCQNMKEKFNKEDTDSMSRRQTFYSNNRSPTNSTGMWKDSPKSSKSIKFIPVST

[4] = biological target: T2, Alpha-1D adrenergic receptor (Homo sapiens, UniProt P25100); format: cell membranes, HEK293, Membrane; conditions: hek293; further: in other assays of this panel Not Active means under 50% inhibition at 10 µM
T2 sequence (P25100 whole entry): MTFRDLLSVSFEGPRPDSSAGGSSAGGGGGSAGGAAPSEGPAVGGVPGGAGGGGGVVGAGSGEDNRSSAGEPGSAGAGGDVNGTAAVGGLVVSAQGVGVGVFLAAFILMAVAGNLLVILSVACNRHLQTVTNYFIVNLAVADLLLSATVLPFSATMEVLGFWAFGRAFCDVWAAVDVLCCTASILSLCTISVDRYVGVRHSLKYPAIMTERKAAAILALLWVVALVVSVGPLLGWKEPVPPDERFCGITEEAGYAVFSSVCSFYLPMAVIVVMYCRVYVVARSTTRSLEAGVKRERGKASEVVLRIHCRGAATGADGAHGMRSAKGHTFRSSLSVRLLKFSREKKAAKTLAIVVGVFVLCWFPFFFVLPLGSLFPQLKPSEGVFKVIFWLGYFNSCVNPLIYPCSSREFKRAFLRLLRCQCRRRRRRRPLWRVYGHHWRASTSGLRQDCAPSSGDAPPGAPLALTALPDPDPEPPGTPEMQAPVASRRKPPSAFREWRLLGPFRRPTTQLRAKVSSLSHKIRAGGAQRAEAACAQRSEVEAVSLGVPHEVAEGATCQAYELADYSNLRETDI

Cytochrome P450 2E1 = Cytochrome P450 2E1 (Homo sapiens, UniProt P05181); conditions: bti-tn-5b1-4; further: in other assays of this panel Not Active means under 50% inhibition at 10 µM
Sequence of Cytochrome P450 2E1 (P05181 whole entry): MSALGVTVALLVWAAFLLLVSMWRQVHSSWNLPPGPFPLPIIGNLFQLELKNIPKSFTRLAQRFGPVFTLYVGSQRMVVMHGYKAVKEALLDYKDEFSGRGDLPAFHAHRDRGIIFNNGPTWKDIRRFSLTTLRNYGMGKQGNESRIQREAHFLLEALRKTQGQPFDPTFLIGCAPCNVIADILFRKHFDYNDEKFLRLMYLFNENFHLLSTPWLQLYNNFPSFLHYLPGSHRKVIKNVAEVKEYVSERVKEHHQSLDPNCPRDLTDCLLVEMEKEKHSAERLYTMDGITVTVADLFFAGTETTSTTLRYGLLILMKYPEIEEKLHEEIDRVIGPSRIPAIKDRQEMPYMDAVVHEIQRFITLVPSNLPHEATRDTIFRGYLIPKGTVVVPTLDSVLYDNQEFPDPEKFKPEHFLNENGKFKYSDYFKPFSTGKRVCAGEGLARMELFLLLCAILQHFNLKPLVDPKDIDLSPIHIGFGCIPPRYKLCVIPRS

Molecule | IC50 [1] | IC50 [2] | Ki [2] | IC50 ([3]; cho-k1) | IC50 (Cannabinoid receptor 1) | IC50 (Vasopressin V1a receptor) | IC50 [4] | IC50 (Cytochrome P450 2E1) | Ki (Cytochrome P450 2E1) | IC50 ([3]; read-out: IC50) [µM] | Ki ([3]; read-out: Ki) [µM] | Ki [1] | Ki ([3]; cho-k1) | Ki (Cannabinoid receptor 1) | Ki (Vasopressin V1a receptor) | Ki [4]
COc1cc(C(=O)NS(=O)(=O)c2ccccc2C)ccc1Cc1cn(C)c2ccc(NC(=O)OC3CCCC3)cc12 [ZAFIRLUKAST] | Not Active | Not Active | Not Active | Not Active | Not Active | Not Active | Not Active | Not Active | Not Active |  |  |  |  |  |  | 
CCCc1nn(C)c2c(=O)[nH]c(-c3cc(S(=O)(=O)N4CCN(C)CC4)ccc3OCC)nc12 | Not Active | Not Active | Not Active | Not Active | Not Active | Not Active | Not Active | Not Active | Not Active |  |  |  |  |  |  | 
CN[C@@H]1[C@H](O)[C@H](NC)[C@H]2O[C@@]3(O)C(=O)C[C@@H](C)O[C@H]3O[C@@H]2[C@H]1O [SPECTINOMYCIN] | Not Active | Not Active | Not Active | Not Active | Not Active | Not Active | Not Active | Not Active | Not Active |  |  |  |  |  |  | 
CC(C)(C)NC[C@H](O)COc1nsnc1N1CCOCC1 [TIMOLOL] | Not Active | Not Active | Not Active | Not Active | Not Active | Not Active | Not Active | Not Active | Not Active |  |  |  |  |  |  | 
O=P(O)(O)C(O)(Cc1cccnc1)P(=O)(O)O [RISEDRONIC ACID] | Not Active | Not Active | Not Active | Not Active | Not Active | Not Active | Not Active | Not Active | Not Active |  |  |  |  |  |  | 
COc1ccc(/C=C/C(=O)Nc2ccccc2C(=O)O)cc1OC | Not Active | Not Active | Not Active | Not Active | Not Active | Not Active | Not Active | Not Active | Not Active |  |  |  |  |  |  | 
CCOC(N)=O | Not Active | Not Active | Not Active | Not Active | Not Active | Not Active | Not Active | Not Active | Not Active |  |  |  |  |  |  | 
C#CCN(C)[C@H](C)Cc1ccccc1 [SELEGILINE] | Not Active | Not Active | Not Active | Not Active | Not Active | Not Active | Not Active | Not Active | Not Active |  |  |  |  |  |  | 
Nc1ccc(S(=O)(=O)Nc2ncccn2)cc1 [SULFADIAZINE] | Not Active | Not Active | Not Active | Not Active | Not Active | Not Active | Not Active | Not Active | Not Active |  |  |  |  |  |  | 
C[C@@H]1C[C@H]2[C@@H]3CCC4=CC(=O)C=C[C@]4(C)C3=CC[C@]2(C)[C@H]1C(=O)CN1CCN(c2cc(N3CCCC3)nc(N3CCCC3)n2)CC1 [TIRILAZAD] | Not Active | Not Active | Not Active |  | Not Active | Not Active | Not Active | Not Active | Not Active | 18.5 | 11.8 |  |  |  |  | 
COc1ncnc(NS(=O)(=O)c2ccc(N)cc2)c1OC [SULFADOXINE] | Not Active | Not Active | Not Active | Not Active | Not Active | Not Active | Not Active | Not Active | Not Active |  |  |  |  |  |  | 
STANNOUS FLUORIDE | Not Active | Not Active | Not Active | Not Active | Not Active | Not Active | Not Active | Not Active | Not Active |  |  | Not Active | Not Active | Not Active | Not Active | Not Active
CC1=C(CC(=O)O)c2cc(F)ccc2/C1=C\c1ccc(S(C)(=O)=O)cc1 [EXISULIND] | Not Active | Not Active | Not Active | Not Active | Not Active | Not Active | Not Active | Not Active | Not Active |  |  |  |  |  |  | 
NC[C@H]1O[C@H](O[C@H]2[C@H](O)[C@@H](O[C@H]3O[C@H](CO)[C@@H](O)[C@H](N)[C@H]3O)[C@H](N)C[C@@H]2N)[C@H](N)C[C@@H]1O [TOBRAMYCIN] | Not Active | Not Active | Not Active | Not Active | Not Active | Not Active | Not Active | Not Active | Not Active |  |  |  |  |  |  | 
O=C(O)C(Cl)(Cl)Cl [TRICHLOROACETIC ACID] | Not Active | Not Active | Not Active | Not Active | Not Active | Not Active | Not Active | Not Active | Not Active |  |  |  |  |  |  | 
